Assay [1] has as its system T1, SWELL1 protein in 3T3-F442A adipocytes.
T1 construct: host or cells: 3T3-F442A preadipocytes and differentiated adipocytes (wild type)
As to the kind of experiment: SWELL1 protein western blot in adipocytes. Format: cell-based, murine. As to conditions: 10 and 1 μM, 4 days, then 6 h serum starving. On the procedure: (§1) In the case of 3T3-F442A adipocytes, the WT and KO cells were treated with either vehicle (DMSO), 1 or 10 µM SN-40X (after 7–11 days of differentiation) for 96 h and then stimulated with 0 and 10 nM insulin/serum-containing media with vehicle (DMSO) or SN-40X for 15 min for SWELL1 detection. […] To simulate glucolipotoxicity, 8 mM sodium palmitate was dissolved in 18.4% fatty-acid free BSA at 37 °C in DMEM medium with 25 mM glucose to obtain a conjugation ratio of 1:3 palmitate:BSA[80].
Adipocytes were washed twice in ice-cold phosphate buffer saline and lysed in RIPA buffer (150 mM NaCl, 20 mM HEPES, 1% NP-40, 5 mM EDTA, pH 7.4) with proteinase/phosphatase inhibitors (Roche). The cell lysate was further sonicated in 10 s cycle intervals 2–3 times and centrifuged at 18,407×g for 30 min at 4 °C and repeated one more time to remove the excess fat. The supernatant was collected and further estimated for protein concentration using a DC protein assay kit (Bio-Rad). Fat and liver tissues were homogenized and suspended in RIPA buffer with inhibitors and further processed in a similar fashion as described above. HUVECs were also prepared in a similar fashion except the lysates were spun only once to remove the cells debris to obtain the clear supernatant. For islets, either human or mouse islets were washed twice with phosphate buffer saline (PBS) and lysed using RIPA buffer containing protease and phosphatase inhibitors. The lysate was further clarified by freezing in liquid nitrogen for about 10 s for three cycles. The supernatant was collected from the whole lysate centrifuged at 16,260×g for 20 min at 4 °C. […] For soleus muscle, the tissue was homogenized in a Bullet Blender homogenizer (Speed-9, Time-3 mins) in 8 volumes of ice-cold muscle homogenization buffer (50 mM Tris, 25 mM NaCl, 0.2% Nonidet P-40, 5 mM EGTA, 2.5 mM EDTA, 20 mM NaF, 20 mM Na4P2O7·10H2O, 2 mM Na3VO4, pH 7.4) supplemented with protease/phosphatase inhibitor (Roche). The homogenized lysate was centrifuged two times at 18,500×g for 20 min at 4 °C and supernatant was collected for protein estimation. Protein samples were further prepared by boiling in 2X or 4X Laemmli buffer. Approximately 10–60 µg of total protein was loaded in 4–15% gradient gel (Bio-Rad) for separation and protein transfer was carried out onto the PVDF membranes (Bio-Rad). Membranes were blocked in 5% BSA (or 5% milk for SWELL1) in TBST buffer (0.2 M Tris, 1.37 M NaCl, 0.2% Tween-20, pH 7.4) for 1 h and incubated with appropriate primary antibodies (5% BSA or milk) overnight at 4 °C. […] The images were further analyzed for band intensities using ImageJ software. […]

Assay [2] has the same test system. The assay can be described thus: SWELL1 protein under glucolipotoxic stress (palmitate + glucose). Format: cell-based, murine. To be noted: 10 µM 96 h pretreatment, then 1 mM palmitate + 25 mM glucose 16 h. On the procedure:
as §1

The target in assay [3] is T2, ICl,SWELL (SWELL1-LRRC8 channel) in HEK-293 cells (Homo sapiens, UniProt Q8IWT6).
T2 construct: applied when the endogenous HEK-293 cell ICl,SWELL current density reached 30 pA/pF; endogenous in cells; host or cells: HEK-293 (ATCC, #CRL-1573)
T2 sequence (Q8IWT6 1-810): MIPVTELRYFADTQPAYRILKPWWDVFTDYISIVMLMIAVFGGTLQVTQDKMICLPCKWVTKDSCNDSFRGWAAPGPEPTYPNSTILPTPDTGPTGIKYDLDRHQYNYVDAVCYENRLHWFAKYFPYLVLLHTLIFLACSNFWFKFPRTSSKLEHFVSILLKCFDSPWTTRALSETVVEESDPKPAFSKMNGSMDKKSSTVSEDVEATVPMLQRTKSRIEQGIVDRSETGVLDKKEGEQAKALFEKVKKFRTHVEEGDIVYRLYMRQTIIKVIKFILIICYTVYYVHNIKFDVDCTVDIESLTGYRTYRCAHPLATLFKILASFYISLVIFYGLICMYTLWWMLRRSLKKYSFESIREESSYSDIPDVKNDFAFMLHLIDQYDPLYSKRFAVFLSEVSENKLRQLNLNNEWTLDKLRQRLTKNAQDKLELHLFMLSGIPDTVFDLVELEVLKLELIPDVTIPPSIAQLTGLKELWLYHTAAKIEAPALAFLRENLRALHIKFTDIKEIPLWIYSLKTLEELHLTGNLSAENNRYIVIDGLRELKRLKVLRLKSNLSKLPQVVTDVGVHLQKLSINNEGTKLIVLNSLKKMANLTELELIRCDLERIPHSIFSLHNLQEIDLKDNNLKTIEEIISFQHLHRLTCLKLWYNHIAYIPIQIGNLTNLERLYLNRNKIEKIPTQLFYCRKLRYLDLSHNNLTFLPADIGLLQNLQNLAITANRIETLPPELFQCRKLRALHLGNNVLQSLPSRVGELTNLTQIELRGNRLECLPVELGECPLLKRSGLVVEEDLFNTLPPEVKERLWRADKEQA
As to the kind of experiment: ICl,SWELL inhibition after hypotonic activation (open channel), patch-clamp. It is filed as cell-based. As to conditions: HEK-293 cells; for IC50: hypotonic (210 mOsm) stimulation, outward current, compound applied at 30 pA/pF, read-out: IC50 for ICl,SWELL inhibition. On the procedure: Patch-clamp recordings of β-cells, 3T3-F442A adipocytes, and mature human adipocytes were performed as described previously[24],[28]. Briefly, all patch-clamp experiments were conducted at room temperature using either an Axopatch 200B amplifier or a MultiClamp 700B amplifier paired to a Digidata 1550 digitizer. Data were acquired using pClamp 10.4 software. For hypotonic swelling, extracellular solution consisted of the following (in mM): 90 NaCl, 2 CsCl, 1 MgCl2, 1 CaCl2, 10 HEPES, 10 mannitol, pH 7.4 with NaOH (210 mOsm/kg). The isotonic extracellular solution consisted of the same composition above but with 110 mM instead of 10 mM mannitol (300 mOsm/kg). The swell-activated current was elicited by perfusing cells with a hypotonic solution (210 mOsm/kg). […] For perforated-patch recordings in isolated human adipocytes, the intracellular solution was as above but without ATP and GTP, and contained 360 μg/ml Amphotericin B (Sigma). The holding potential was 0 mV. Voltage ramps from −100 to +100 mV (at 0.4 mV/ms) were applied every 4 s. The sampling interval was 100 μs and filtered at 10 kHz. For perforated-patch recordings, cells with a membrane resistance below 1 GΩ or access resistance above 20 MΩ were discarded. […]

In assay [4] the test system is T2D and non-T2D mice. The assay can be described thus: Metabolic phenotyping: fasting glucose, GTT, ITT. As to conditions: compared to Inactive 1. On the procedure:
All compounds were dissolved in Kolliphor® EL (Sigma, #C5135).
(§2) Mice were fasted for 6 h prior to glucose tolerance tests (GTT). Baseline glucose levels at 0 min timepoint (fasting glucose, FG) were measured from a blood sample collected from tail snipping using glucometer (Bayer Healthcare LLC). Either 1 or 0.75 g D-Glucose/kg body weight were injected (i.p.) for lean or HFD mice, respectively and glucose levels were measured at 5 or 7, 15, 30, 60, 90, and 120 min timepoints after injection. For insulin tolerance tests (ITTs), the mice were fasted for 4 h. Similar to GTTs, the baseline blood glucose levels were measured at 0 min timepoint and 15, 30, 60, 90, and 120 min timepoints post-injection (i.p.) of insulin (HumulinR, 1 U/kg bodyweight for lean mice or 1.25 U/kg body weight for HFD mice). […] The collected plasma was then measured for insulin content by using Ultra-Sensitive Mouse Insulin ELISA Kit (Crystal Chem, #90080). All mouse studies were performed in a blinded fashion.

The subject of assay [5] is pancreatic islets of T2D mice. As to the kind of experiment: Insulin secretion of treated T2D mice (serum insulin, islet perifusion GSIS). It is filed as in vivo, mouse. As to conditions: islets of T2D KKAy mice, compared to Inactive 1. On the procedure:
as §2

The target of assay [6] is T3, R103E-SWELL1 expressing HEK-293 cells (R103E O/E) (Homo sapiens, UniProt Q8IWT6, R103E).
T3 construct: P2A:EGFP (C); host or cells: HEK-293, Lipofectamine 2000, co-transfected with CMV-Cre; EGFP+ cells recorded
T3 sequence (Q8IWT6 whole entry R103E): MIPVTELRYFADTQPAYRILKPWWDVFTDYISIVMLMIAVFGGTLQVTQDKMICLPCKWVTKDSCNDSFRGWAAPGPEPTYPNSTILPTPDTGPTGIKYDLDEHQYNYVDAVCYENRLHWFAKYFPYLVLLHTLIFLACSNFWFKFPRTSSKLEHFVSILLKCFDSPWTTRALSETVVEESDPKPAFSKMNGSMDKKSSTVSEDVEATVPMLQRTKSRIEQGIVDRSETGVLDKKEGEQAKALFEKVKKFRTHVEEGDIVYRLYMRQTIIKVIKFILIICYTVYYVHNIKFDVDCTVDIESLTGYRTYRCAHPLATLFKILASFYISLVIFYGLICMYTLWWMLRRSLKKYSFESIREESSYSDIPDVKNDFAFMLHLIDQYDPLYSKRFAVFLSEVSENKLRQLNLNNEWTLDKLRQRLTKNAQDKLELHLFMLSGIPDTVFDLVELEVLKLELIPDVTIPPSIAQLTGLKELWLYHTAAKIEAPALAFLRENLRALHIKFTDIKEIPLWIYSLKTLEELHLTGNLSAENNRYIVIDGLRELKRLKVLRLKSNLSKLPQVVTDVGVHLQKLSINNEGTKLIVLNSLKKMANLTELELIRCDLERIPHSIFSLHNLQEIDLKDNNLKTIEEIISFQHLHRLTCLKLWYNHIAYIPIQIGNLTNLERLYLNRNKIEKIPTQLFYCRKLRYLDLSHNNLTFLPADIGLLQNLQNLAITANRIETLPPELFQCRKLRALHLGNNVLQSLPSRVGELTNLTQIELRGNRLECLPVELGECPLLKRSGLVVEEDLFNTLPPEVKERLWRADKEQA
As to the kind of experiment: ICl,SWELL inhibition in SWELL1-R103E overexpressing cells, patch-clamp. Format: cell-based. To be noted: R103E-SWELL1 overexpressing HEK-293 cells, compound applied at maximum current density; read-out: IC50 for ICl,SWELL inhibition, R103E O/E. The source says: See also Fig. 6 for a schematic representation. […] For SWELL1-R103E overexpression experiments, HEK-293 cells were transfected with either control Cre plasmid (CMV-Cre, McDonnell Genome Institute in Washington University in St. Louis) or Cre plus R103E-GFP (CAG-LoxP-stop-LoxP-SWELL1-R103E/3XFlag:P2A:EGFP, Vector Biolabs) plasmid using Lipofectamine 2000 as per the manufacturer’s protocol. SWELL1-R103E expressing HEK-293 cells were identified by EGFP + fluorescence.

Assay [7] concerns the target Mus musculus SWELL1 (LRRC8a, leucine-rich repeat-containing protein 8a) (Mus musculus). As to the kind of experiment: cryo-EM structure; SWELL1 in MSP1E3D1 lipid nanodiscs (2:1:1 DOPE:POPC:POPS), 1 mg/mL SWELL1-MSP1E3D1 with 100 µM SN-407; 20 mM HEPES, 150 mM KCl, pH 7.4; C6 refinement, then symmetry expansion and relaxation.
[8] abbreviates: 8 weeks HFD mice, 5 mg/kg/day × 4 days.

`O=C(O)CCCOc1cc2c(c(Cl)c1Cl)C(=O)C(C1CCCC1)C2` (stereo not shown) [Inactive 2, 4-((6,7-dichloro-2-cyclopentyl-1-oxo-2,3-dihydro-1H-inden-5-yl)oxy)butanoic acid]: the “SWELL1 protein level relative to vehicle-treated controls” value in assay [1] is “did not significantly increase”. Also, the “prevention of palmitate/glucose-induced reduction of SWELL1 protein” value in assay [2] is given as “not”. Also, in assay [3], the IC50 is 10.6 µM.
Turning to `CCCCC1(C2CCCC2)Cc2cc(OCCCB(O)O)c(Cl)c(Cl)c2C1=O` (stereo not shown) [Inactive 3, (3-((2-butyl-6,7-dichloro-2-cyclopentyl-1-oxo-2,3-dihydro-1H-inden-5-yl)oxy)propyl)boronic acid], the IC50 in assay [3] is 18.3 µM.
On to `CCCCC1(C2CCCC2)Cc2cc(OCCCCC(=O)O)c(Cl)c(Cl)c2C1=O` (stereo not shown) [SN-403, 5-((2-butyl-6,7-dichloro-2-cyclopentyl-1-oxo-2,3-dihydro-1H-inden-5-yl)oxy)pentanoic acid], for which, in assay [4] (setting [8]), the fasting blood glucose entry is listed as “significantly reduced” and the glucose tolerance entry is listed as “improved”. In addition, in assay [3], the “ICl,SWELL inhibitory activity compared to SN-401” value was “increased ICl,SWELL inhibitory activity”.
Regarding `CCCCC1(C2CCCC2)Cc2cc(OCCCCCCC(=O)O)c(Cl)c(Cl)c2C1=O` (stereo not shown) [SN-407, 7-((2-butyl-6,7-dichloro-2-cyclopentyl-1-oxo-2,3-dihydro-1H-inden-5-yl)oxy)heptanoic acid], the GSIS entry in assay [5] was “increased”. In addition, the IC50 in assay [6] was found to be 4.2 µM; in assay [3] it was 1.6 µM. The “glucose tolerance (GTT AUC)” value in assay [4] (T2D KKAy mice, 5 mg/kg i.p. 4 days) is listed as “improved”. In assay [3], the “ICl,SWELL inhibitory activity compared to SN-401” value is given as “increased ICl,SWELL inhibitory activity”.
In assay [7], “Mus musculus SWELL1 (LRRC8a, leucine-rich repeat-containing protein 8a) (natural protein)” registered a stoichiometry N of 6.

The values above are taken from publication PMC8831520, “Small molecule SWELL1 complex induction improves glycemic control and nonalcoholic fatty liver disease in murine Type 2 diabetes” (Nature Communications, 2022).
